In patent US10787695B2, “Systems and methods for rapidly sensing microbial metabolism” (General Electric Company, priority 2017, dated 2020):

Tested on: bacteria
Assay: bacteria growth within chambers of a bacteria culture array with or without ampicillin (FIG. 33)
Format: cell-based
Conditions: chambers that included ampicillin vs chambers without ampicillin; FIG. 33, graph 168
From the text: Furthermore, the bacteria culture arrays of the present disclosure may be used to assess the effect of drugs on bacteria samples. For instance, single cells of bacteria may be added the chambers of a bacteria culture array, and drugs and/or antimicrobial agents may be added to some or all of the chambers. In other words, single cell bacteria activity may be used to conduct population-based analysis of bacteria samples. With this in mind, FIG. 33 is a graph 168 showing bacteria growth within chambers of a bacteria culture array.
Visual confirmation of the results shown in the graph 168 were also obtained. FIG. 34 is images […] of the chambers of the bacteria culture array.

SMILES: CC1(C)S[C@@H]2[C@H](NC(=O)[C@H](N)c3ccccc3)C(=O)N2[C@H]1C(=O)O [ampicillin]
- bacteria growth within chambers of a bacteria culture array: hindrance to growth
